Legend:
[1] = retention time on BEH HILIC column (20 min gradient, 0.4 mL/min); higher = later elution; conditions: LC: HILIC
Experimental: (§1)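 Reference standards (20-100 uM) were separated by HILIC UPLC (BEH HILIC, 45 °C): acidic pH 3.0 ammonium formate/formic acid for ESI+ and basic pH 9.0 ammonium acetate/ammonia for ESI-. They were analysed on a Synapt G2-Si traveling-wave IMS-QTOF with nitrogen drift gas (WH 30 V; WV 800 m/s in ESI+ and 1000 m/s in ESI-).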

[2] = collision cross section (TWIMS, N2) of ion [M-H]-; higher = larger gas-phase ion cross section; conditions: ionization: ESI negative; LC: HILIC, pH 9.0 ammonium acetate
Experimental: as §1

[3] = collision cross section (TWIMS, N2) of ion [M+Na]+; higher = larger gas-phase ion cross section; conditions: ionization: ESI positive; LC: HILIC, pH 3.0 ammonium formate
Experimental: as §1, with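 “ESI-). CCS (TWCCSN2, Å2) was calibrated with Major Mix IMS/TOF and LockCCS leucine enkephalin; inter-day RSD was <1%.” for “ESI-).”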

[4] = collision cross section (TWIMS, N2) of ion [M+H]+; higher = larger gas-phase ion cross section; conditions: ionization: ESI positive; LC: HILIC, pH 3.0 ammonium formate
Experimental: as §1

[5] = ionization: ESI negative, pH 9.0 ammonium acetate
[6] = ionization: ESI positive, pH 3.0 ammonium formate

Compound | retention time on BEH HILIC column [1, 5] [min] | retention time on BEH HILIC column [1, 6] [min] | collision cross section [2] [Å²] | collision cross section [3] [Å²] | collision cross section [4] [Å²]
O=C(O)CCCCCCCC(=O)O [Azelaic acid] | 0.8 | 1 | 139.96 | 145.99 | 
CCCCCCCCCCCCCCCCCCCCCC(=O)O [Behenic acid] | 0.73 | 0.82 | 197.18 | 204.26 | 
C[N+](C)(C)CC(=O)O [Betaine] |  | 7.16 |  | 132.22 | 125.33
CCCCCCCCCC(=O)O [Capric acid] | 0.75 | 0.75 | 151.28 | 143.53 | 
CCCCCC(=O)O [Caproic acid] | 0.9 | 1.25 | 129.59 | 130.13 | 
OC[C@@H](O)C(O)[C@H](O)CO [D-arabitol] | 3.16 | 3.12 | 126.54 | 133.34 | 
O=C[C@H](O)COP(=O)(O)O [D-glyceraldehyde 3-phosphate] | 12.1 | 11.6 | 131.08 | 137.94 | 
OC[C@H]1O[C@@H](O[C@H]2[C@H](O)[C@@H](O)[C@@H](O)O[C@@H]2CO)[C@H](O)[C@@H](O)[C@H]1O [D-lactose] | 7.33 | 6.42 | 172.39 | 171.29 | 
OC[C@H]1O[C@H](O[C@H]2[C@H](O)[C@H](O)[C@@H](O)O[C@@H]2CO)[C@H](O)[C@@H](O)[C@@H]1O [D-maltose] | 7.95 | 6.68 | 171.3 | 175.45 | 
OC[C@H]1O[C@H](O)[C@@H](O)[C@@H](O)[C@@H]1O [D-mannose] | 5.43 | 3.87 | 132.14 | 140.11 | 
OC[C@H]1OC(O)[C@H](O)[C@@H]1O (stereo partly drawn) [D-ribose] | 1.58 | 1.71 | 121.34 | 131.78 | 
OC[C@@H](O)[C@H](O)[C@@H](O)CO [D-xylitol] | 3.16 | 3.16 | 128.01 | 133.34 | 
CCOC(=O)CC(C)C(=O)OCC (configuration not stated) [Diethyl methylsuccinate] | 0.95 | 0.75 | 139.96 | 151.23 | 
O=C(CO)[C@@H](O)[C@H](O)[C@H](O)COP(=O)(O)O [Fructose 6-phospahte] | 11.9 | 8.86 | 146.38 | 151.18 | 
OC[C@@H](O)[C@H](O)[C@H](O)[C@@H](O)CO [Galactitol] | 4.84 | 5.56 | 133.44 | 140.03 | 
O=P(O)(O)OC[C@H]1OC(O)[C@H](O)[C@@H](O)[C@@H]1O (some centres not stated) [Glucose 6-phosphate] | 12.1 | 9.32 | 148.86 | 154.07 | 

Compound | retention time on BEH HILIC column [1, 5] [min] | retention time on BEH HILIC column [1, 6] [min] | collision cross section [2] [Å²] | collision cross section [3] [Å²] | collision cross section [4] [Å²]
CCCCCCC(=O)O [Heptanoic acid] | 0.9 | 0.77 | 135.55 | 134.35 | 
CCCCC/C=C\C/C=C\CCCCCCCC(=O)O [Linoleic acid] | 0.73 | 0.75 | 179.98 | 174.95 | 
OC[C@@H](O)[C@@H](O[C@H]1O[C@H](CO)[C@@H](O)[C@H](O)[C@H]1O)[C@H](O)[C@@H](O)CO [Maltitol] | 6.83 | 6.7 | 171.26 | 174.13 | 
OC[C@@H](O)[C@@H](O)[C@H](O)[C@H](O)CO [Mannitol] | 4.75 | 4.8 | 134.82 | 140.03 | 
CCCCCCCCCCCCCCCCCCC(=O)O [Nonadecanoic acid] | 0.73 | 0.77 | 188.17 | 190.13 | 
O=C(O)CCCC(=O)C(=O)O [Oxoadipic acid] | 5.03 | 4.84 | 128.96 | 136.98 | 
CCCCCCCCCCCCCCCC(=O)O [Palmitic acid] | 0.77 | 0.72 | 170.14 | 179.96 | 
OC[C@@H](O)[C@@H](O)[C@@H](O)CO [Ribitol] | 3.57 | 2.85 | 126.54 | 133.34 | 
OC[C@@H](O)[C@@H](O)[C@H](O)[C@@H](O)CO [Sorbitol] | 4.6 | 4.7 | 133.44 | 140.03 | 
CCCCCCCCCCCCCCCCCC(=O)O [Stearic acid] | 0.73 | 0.75 | 184.42 | 186.65 | 
OC[C@H]1O[C@@](CO)(O[C@H]2O[C@H](CO)[C@@H](O)[C@H](O)[C@H]2O)[C@@H](O)[C@@H]1O [Sucrose] | 6.6 | 6.77 | 169.11 | 171.56 | 
O=C(O)c1ccc(CO)o1 [Sumiki's acid] | 3.07 | 3.12 | 128.72 | 129.97 | 
O=C(O)/C=C(/CC(=O)O)C(=O)O [cis-aconitic] | 2.8 | 2.24 | 126.73 | 139.19 | 
O[C@H]1[C@H](O)[C@@H](O)[C@H](O)[C@@H](O)[C@H]1O [myo-inositol] | 5.92 | 5.84 | 133.54 | 146 | 
O=C(O)/C=C(\CC(=O)O)C(=O)O [trans-aconitic acid] | 2.23 | 2.23 | 118.87 | 138.79 | 
COc1cc(/C=C/C(=O)O)ccc1O [trans-ferulic acid] | 0.9 | 0.93 | 143.64 | 161.96 | 

— the supplement of paper PMC11127212
